How the values were obtained:
[1] = molecular target: T1, glycine transporter subtype 1 (GlyT1) (Sus scrofa, UniProt A0A287AJD7); assay: PET imaging with pharmacological challenges (blocking of Compound A uptake by a selective GlyT1 inhibitor); type: in vivo; details: pig
T1 construct: from tissue; host or cells: brain of living anaesthetised pig (Yorkshire/Danish Landrace), in vivo PET
Protocol: (§1) The animals (pig, Yorkshire/Danish Landrace (˜40 Kg; n=2) were housed singly in thermostatically controlled (20° C.) and naturally illuminated stalls. They were scanned under terminal anaesthesia (ketamine induced isoflurane anaesthesia) on different days. The left femoral artery and vein of each animal were surgically cannulated using catheters (Avanti® size 4F-7F). Blood samples were collected from the femoral artery and the radiolabelled and non-labelled agents were injected into the femoral vein. Animals were placed supine in a Siemens ECAT EXACT HR tomograph, with the head immobilised in a custom-made holding device. During the study, blood pH, pCO2 and pO2 levels were monitored and maintained within the normal physiological range. In addition, BP and heart rate were recorded throughout the study. Compound A was administered intravenously into the femoral vein as a 1 minute bolus injection. PET scanning and arterial blood sampling was commenced upon start of the radioligand administration.
In a first study, two sequential high specific activity iv radioligand Compound A administrations were performed in same animal on the same day.
(§2) The PET data were analysed by using tracer kinetic modeling techniques to derive estimates of the tissue delivery (K1) and partition coefficient (PET volume of distribution—Vd). An input function representing the concentration of unchanged radiotracer in plasma was generated using discrete measures of the total plasma radioactivity and HPLC measures determining the parent radiotracer fraction. A generic tracer kinetic model (DEPICT) which estimates the tissues impulse response function was fitted to each of the individual tissue time activity curves to derive the appropriate parameters for each region (K1,Vd) (R. N. Gunn, S. R. Gunn, V. J. Cunningham. Cereb Blood Flow Metab. 2001, 21(6), 635-52; R. N. Gunn, S. R. Gunn, F. E. Turkheimer, J. A. Aston, V. J. Cunningham. J Cereb Blood Flow Metab. 2002, 22(12), 1425-39).

[2] = molecular target: T1, glycine transporter subtype 1 (GlyT1); assay: PET imaging with Compound A in pig brain; type: in vivo
Protocol: as §1, §2

T1 sequence (A0A287AJD7 1-654): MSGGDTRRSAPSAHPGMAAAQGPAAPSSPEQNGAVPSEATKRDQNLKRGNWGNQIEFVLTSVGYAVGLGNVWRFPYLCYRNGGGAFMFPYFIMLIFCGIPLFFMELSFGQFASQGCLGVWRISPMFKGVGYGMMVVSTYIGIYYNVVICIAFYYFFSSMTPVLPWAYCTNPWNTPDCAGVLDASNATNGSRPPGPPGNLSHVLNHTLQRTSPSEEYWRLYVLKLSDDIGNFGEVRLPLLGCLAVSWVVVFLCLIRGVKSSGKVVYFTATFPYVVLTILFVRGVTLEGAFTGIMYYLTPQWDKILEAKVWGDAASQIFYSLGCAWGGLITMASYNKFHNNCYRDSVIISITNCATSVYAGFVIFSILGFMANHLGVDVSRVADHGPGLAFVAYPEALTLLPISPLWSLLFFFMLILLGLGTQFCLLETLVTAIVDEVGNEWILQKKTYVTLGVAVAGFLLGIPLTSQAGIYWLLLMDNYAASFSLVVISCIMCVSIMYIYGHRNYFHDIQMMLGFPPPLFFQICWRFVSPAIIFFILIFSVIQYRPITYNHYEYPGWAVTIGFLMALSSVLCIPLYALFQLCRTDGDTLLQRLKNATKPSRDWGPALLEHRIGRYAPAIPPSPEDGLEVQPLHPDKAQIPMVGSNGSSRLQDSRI

Compound	effect on Compound A uptake in the brain ([1]; escalating iv doses 0.001, 0.01 and 0.1 mg/kg, 5 min prior to Compound A)	GlyT1 saturation (occupancy) ([1]; high dose 0.5 mg/kg iv)	effect on specific uptake of radiotracer Compound A ([1]; high iv dose 0.5 mg/kg, 5 minutes prior to Compound A)	ED50 ([1]; increasing iv doses, PET, read-out: intravenous ED50 (change in Compound A derived Vd))	effect of pretreatment on K1 of Compound A ([1]; iv pretreatment)	regional brain distribution ([2]; pig brain, PET, compared with the known distribution of GlyT1)	time of peak brain uptake of radioactivity after administration ([2]; pig brain, iv, PET)	brain entry of radiotracer ([2]; pig, iv 1 minute bolus, PET 0 to 90 min)	Extraction fraction (K1) ([2]; pig, stable across brain regions, tracer kinetic model (DEPICT))
CN1CCCC[C@H]1[C@@H](NC(=O)c1cccc(C(F)(F)F)c1Cl)c1ccccc1 [2-chloro-N—[(S)-[(2S)-1-methyl-2-piperidinyl](phenyl)methyl]-3-(trifluoromethyl)benzamide]	dose-dependent decrease of compound A uptake in the brain	near complete GlyT1 saturation	the specific uptake of radiotracer was blocked	0.0225 mg/kg	not altered				
Cc1cccc(C)c1C(=O)NC(c1ccccc1)C1(N(C)[11CH3])CCCC1 (stereo not drawn) [Compound A, [^11C—N-methyl]-N-[[1-(dimethylamino)cyclopentyl](phenyl)methyl]-2,6-dimethylbenzamide]						higher accumulation in mid-brain, thalamus and cerebellum compared to cortical regions	25 min	readily enters the pig brain	0.06 min⁻¹
